Measurements from patent publication US12281098B2, “Five-membered-fused six-membered compound, preparation method, pharmaceutical composition and use” (HANGZHOU POLYMED BIOPHARMACEUTICALS, INC., priority 2021, dated 2025).
Like-named read-outs stand apart in the source and are kept apart here.

Columns and labels:
IRAK4 kinase = molecular target: T1, IRAK4 kinase (Homo sapiens, UniProt Q9NWZ3); assay: Compound inhibition of IRAK4 kinase activity (fluorescence microfluidic mobility shift assay); type: biochemical; conditions: 10 μM ATP, 6 nM IRAK4 kinase
T1 construct: purchased Carna 09-145
T1 sequence (Q9NWZ3 1-460): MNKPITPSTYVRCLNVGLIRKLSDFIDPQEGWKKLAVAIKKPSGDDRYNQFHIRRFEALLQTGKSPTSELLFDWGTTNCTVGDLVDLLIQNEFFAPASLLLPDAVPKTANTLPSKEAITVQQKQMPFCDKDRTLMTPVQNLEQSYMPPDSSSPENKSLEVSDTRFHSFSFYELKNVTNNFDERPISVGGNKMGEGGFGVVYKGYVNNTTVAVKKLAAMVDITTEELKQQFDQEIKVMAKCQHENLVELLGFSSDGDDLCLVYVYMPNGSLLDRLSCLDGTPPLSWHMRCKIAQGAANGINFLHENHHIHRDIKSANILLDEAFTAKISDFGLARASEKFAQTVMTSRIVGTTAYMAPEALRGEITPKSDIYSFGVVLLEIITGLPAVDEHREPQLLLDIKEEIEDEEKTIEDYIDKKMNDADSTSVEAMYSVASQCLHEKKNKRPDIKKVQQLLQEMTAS
Method: Based on the experimental method of fluorescence microfluidic mobility shift assay, the IC50 value of the compound for competitive binding of ATP to IRAK4 kinase was determined. The initial detection concentration of the compound was 10 μM, which was 4-fold serially diluted to 0.38 nM and assayed in duplicate. In this case, commercially available staurosporine was the standard control for the assay.
1) IRAK4 kinase was dissolved in kinase buffer (50 mM HEPES pH 7.5, 10 mM MgCl2, 2 mM DDT, and 0.01% Brij-35) at a final concentration of 6 nM.
2) The substrate peptide FAM-P8 and ATP were dissolved in the above kinase buffer, and the final concentrations of the substrate peptide FAM-P8 and ATP for IRAK4 were 3 μM and 10 μM, respectively.
3) Compound dilution: The compound was first diluted to 50 μM, and then 4-fold serially diluted with DMSO. In this case, the solution without compound and kinase served as the blank control, corresponding to the “minimum value” shown below; the solution without compound but containing kinase, adenosine 5′-triphosphate disodium salt hydrate, DMSO, and the buffer served as the positive control, corresponding to the “maximum value” shown below.
4) Kinase reaction and termination: 10 μL of the kinase buffer was added to a 384-well plate containing 5 μL of the compound to be tested, and the mixture was incubated at room temperature for 10 minutes; another 10 μL of buffer containing the substrate peptide and adenosine 5′-triphosphate disodium salt hydrate was added to the 384-well plate, and after incubation at 28° C. for 1 hour, 25 μL of termination solution (100 mM HEPES pH 7.5, 50 mM EDTA, 0.2% Coating Reagent #3, and 0.015% Brij-35) was added to each well to terminate the reaction.
5) Data reading: CaliperEZ Reader II instrument was used to read the conversion rate data. Setting conditions: downstream voltage as −500 V, upstream voltage as −2250 V, base pressure as −0.5 PSI, and screening pressure as −1.2 PSI.
6) Data calculation: the conversion rate data was copied from CaliperEZ Reader II, and the conversion rate was converted into inhibition rate data. The calculation formula is as follows: Inhibition percentage (%)=(maximum value−conversion rate)/(maximum value−minimum value)*100%
IC50 values were fitted with XLFit excel add-in version 5.4.0.8.

[1] = molecular target: T2, IRAK4 protein in THP-1 cells (Homo sapiens, UniProt Q9NWZ3); assay: IRAK4 protein degradation in THP-1 induced by PROTAC (Western Blot); type: cell-based; conditions: Table 6, estimated bins, GAPDH internal reference
T2 construct: endogenous in cells; host or cells: THP-1
T2 sequence (Q9NWZ3 1-460): T1 sequence (Q9NWZ3 1-460)
Method: 3.1. Based on the experimental method of immunoblot, i.e., Western Blot, THP-1 cell samples processed by gel electrophoresis were stained with specific antibodies, and the degradation activity of the compounds on the IRAK4 protein in THP-1 cells was determined by analyzing the position of the staining and the depth of the staining. The detection concentrations of the compounds were 0 μM, 0.3 μM, 1 μM, and 3 μM, and the compounds were used to treat the cells for 8 hours, 16 hours, 24 hours, and 48 hours. In this case, glyceraldehyde-3-phosphate dehydrogenase (GAPDH) was the internal reference protein for the assay.
THP-1 cells were spread into a 6-well plate at a density of 1.5×10^6 cells per mL, and incubated in a 37° C. cell culture incubator with 5% CO2 for 2 hours. The compound was diluted with DMSO to 0.6 mM, 0.2 mM, and 0.06 mM, respectively. 10 μL of compound solution was added to the corresponding wells, and the plate was incubated in the incubator for 16 hours, 24 hours, and 48 hours, respectively. The drug-treated THP-1 cells were collected from the wells, added with 120 μL of RIPA lysis buffer containing protease inhibitor, phosphatase inhibitor cocktail 2, and phosphatase inhibitor cocktail 3, and lysed on wet ice for 30 minutes. The cell lysate was then centrifuged at low temperature and high speed for 5 minutes, and the supernatant was collected. Referring to the instructions in the Pierce™ BCA Protein Assay Kit, the cell samples were tested for protein concentration.
The samples were adjusted to the same concentration using lysis buffer and NuPAGE® LDS sample buffer containing 1 M DTT. The samples were heated at 95° C. for 5 minutes and centrifuged at low temperature and high speed. 20 μL of prepared protein sample and 4 μL of PageRuler Prestained Protein Ladder were added to the gel wells. The mixture was electrophoresed at a voltage of 80 V for 0.5 hours, and then electrophoresed for another 1.5 hours after the voltage was adjusted to 120 V. The gel was removed and proteins in the gel were transferred to IBlot™ 2 Transfer Stack at a voltage of 20V. After successful membrane transfer, the bands were cut out at 65 kDa to 40 kDa and 40 kDa to 30 kDa, respectively. The membrane was blocked with 5% non-fat milk at room temperature for 1 hour. The membrane was washed three times with 1×TBST, and incubated with IRAK4 antibody working solution at 4° C. overnight. The IRAK4 antibody working solution was discarded, and the membrane was washed three times with 1×TBST. After the corresponding membrane was incubated with Goat Anti-Rabbit IgG H&L (HRP) working solution and Goat Anti-Mouse IgG H&L (HRP) working solution at room temperature for 1 hour, the antibody working solutions were discarded, and the membrane was washed three times with 1×TBST. Referring to the instructions in the SuperSignal™ West Femto Maximum Sensitivity Substrate Kit, the reagents in the kit were mixed in equal volume proportions to prepare a luminescent mixture, and the membrane was incubated for 1 minute and removed for exposure.
WB assay: The results 24 hours after administration at 1 μM were divided into estimated <25%, <50%, <75%, and <100%.

THP-1 cells = assay: LPS-stimulated cytokine (TNFα) release in THP-1; type: cell-based, Human; conditions: LPS 100 ng/mL, 5 hours, TNF-α ELISA, read-out: Inhibition IC50 (nM) of cytokines (TNFα) against LPS-stimulated inflammatory responses in THP-1 cells
Method: THP-1 cells were cultured in suspension in RPMI 1640 complete medium (containing 10% serum, 1% penicillin-streptomycin, and 55 μM β-mercaptoethanol). THP-1 cells were collected, centrifuged at 350×g at room temperature to discard the supernatant, and resuspended in RPMI 1640 complete medium to a concentration of 2×10^6 cells per mL. THP-1 cells were spread into a 96-well plate at a concentration of 2×10^5 cells per well, and different concentrations of the compound to be tested were added thereto. The plate was incubated in a 37° C. cell culture incubator with 5% CO2 for 60 minutes. 50 μL of LPS at a final concentration of 100 ng/mL was added to a 96-well plate, and incubated in a 37° C. cell culture incubator for 5 hours. The cell culture plate was then taken out from the incubator, and centrifuged at 350×g at low temperature for 5 minutes to collect 150 μL of the supernatant. Referring to the instructions in the Human TNF-α Duoset ELISA Kit, the level of TNF-α in the cell culture supernatant was detected.
Data on the inhibitory activity of cytokines (TNFα) against LPS-stimulated inflammatory responses in THP-1 cells are shown in Tables 3 and 4.

| Compound | IC50 (IRAK4 kinase; Table 2) [µM] | Western Blot results 24 hours after administration at a drug concentration of 1 μM [1] [%] | IC50 (IRAK4 kinase; Table 1) [µM] | IC50 (THP-1 cells; Homo sapiens, THP-1, Table 4) [nM] | IC50 (THP-1 cells; Homo sapiens, THP-1, Table 3) [nM] | IC50 (THP-1 cells; Table 4) [nM] |
| --- | --- | --- | --- | --- | --- | --- |
| COc1cc2nn(CCN3CCN(c4cccc5c4C(=O)N(C4CCC(=O)NC4=O)C5=O)CC3)cc2cc1NC(=O)c1cccc(C(F)(F)F)n1 (stereo not drawn) [III-39] | < 0.1 | <25 |  |  |  |  |
| COc1cc2nn(CCN3CCN(c4ccc(OCC#Cc5cccc6c5C(=O)N(C5CCC(=O)NC5=O)C6=O)cc4)CC3)cc2cc1NC(=O)c1cccc(C(F)(F)F)n1 (stereo not drawn) [III-69] | 0.1 to 1 | <25 |  |  |  |  |
| COc1cc2nn(CCN3CCN(CC(=O)N4CCC5(CCC(C(=O)N[C@H](C(=O)N6C[C@H](O)C[C@H]6C(=O)N[C@@H](C)c6ccc(-c7scnc7C)cc6)C(C)(C)C)CC5)CC4)CC3)cc2cc1NC(=O)c1cccc(C(F)(F)F)n1 [III-29] | < 0.1 |  | < 0.1 | 1000 to 10000 |  |  |
| COc1cc2nn(CCN3CCN(CC(=O)N4CCC5(CCC(N[C@H](C(=O)N6C[C@H](O)C[C@H]6C(=O)N[C@@H](C)c6ccc(-c7scnc7C)cc6)C(C)(C)C)CC5)CC4)C3=O)cc2cc1NC(=O)c1cccc(C(F)(F)F)n1 [III-35] | < 0.1 |  |  | 100 to 1000 |  |  |
| COc1cc2nn(CCN3CC4CCC(C3)N4CC(=O)N3CCC4(CC3)CCN(c3cccc5c3C(=O)N(C3CCC(=O)NC3=O)C5=O)CC4)cc2cc1NC(=O)c1cccc(C(F)(F)F)n1 (stereo not drawn) [III-54] | < 0.1 | <25 |  |  |  |  |
| COc1cc2nn(CCN3CCN(CC(=O)N4CCC5(CC4)CCN(c4ncc(Nc6cccc7c6C(=O)N(C6CCC(=O)NC6=O)C7=O)cn4)CC5)CC3)cc2cc1NC(=O)c1cccc(C(F)(F)F)n1 (stereo not drawn) [III-30] | < 0.1 |  |  | 1000 to 10000 |  |  |
| COc1cc2nn(CCN3CCN(CC(=O)N4CC5(CC(CC(=O)N[C@H](C(=O)N6C[C@H](O)C[C@H]6C(=O)N[C@@H](C)c6ccc(-c7scnc7C)cc6)C(C)(C)C)C5)C4)CC3)cc2cc1NC(=O)c1cccc(C(F)(F)F)n1 [III-31] | < 0.1 |  | < 0.1 | 1000 to 10000 |  |  |
| COc1cc2c(cc1NC(=O)c1cccc(C(F)(F)F)n1)CN(CC(=O)N1CCC3(CC1)CCN(c1cccc4c1C(=O)N(C1CCC(=O)NC1=O)C4=O)CC3)C2=O (stereo not drawn) [III-24] | 0.1 to 1 |  | 0.1 to 1 |  | 100 to 1000 | 100 to 1000 |
| CC(C)(O)c1cc2nn(CCN3CCN(CC(=O)N4CC5(C4)CN(c4cccc6c4C(=O)N(C4CCC(=O)NC4=O)C6=O)C5)CC3)cc2cc1NC(=O)c1cccc(C(F)(F)F)n1 (stereo not drawn) [III-63] | < 0.1 | <25 |  |  |  |  |
| COc1cc2c(cc1NC(=O)c1cccc(C(F)(F)F)n1)CN(CCC(C)(C)C(=O)NC1CCN(c3cccc4c3C(=O)N(C3CCC(=O)NC3=O)C4=O)CC1)C2=O (stereo not drawn) [III-41] | < 0.1 | <25 |  |  |  |  |
| COc1cc2c(cc1NC(=O)c1cccc(C(F)(F)F)n1)CN(CCC(C)(C)C(=O)N1CCC3(CCC(C(=O)N[C@H](C(=O)N4C[C@H](O)C[C@H]4C(=O)N[C@@H](C)c4ccc(-c5scnc5C)cc4)C(C)(C)C)CC3)CC1)C2=O [III-26] | < 0.1 |  | < 0.1 |  | 1000 to 10000 | 1000 to 10000 |
| CC(C)(O)c1cc2nn(CCN3CCN(CC(=O)NCCCCNc4cccc5c4C(=O)N(C4CCC(=O)NC4=O)C5=O)C3=O)cc2cc1NC(=O)c1cccc(C(F)(F)F)n1 (stereo not drawn) [III-10] | 0.1 to 1 |  | 0.1 to 1 |  | 1000 to 10000 | 1000 to 10000 |
| CC(C)(O)c1cc2nn(CCN3CCN(CC(=O)NCCOCCOCCNc4cccc5c4C(=O)N(C4CCC(=O)NC4=O)C5=O)C3=O)cc2cc1NC(=O)c1cccc(C(F)(F)F)n1 (stereo not drawn) [III-2] | 0.1 to 1 |  | 0.1 to 1 |  | ≥ 10000 | ≥ 10000 |
| COc1cc2nn(CCN3CCN(CC(=O)N4CCC5(CCC(Oc6cccc7c6C(=O)N(C6CCC(=O)NC6=O)C7=O)CC5)CC4)CC3)cc2cc1NC(=O)c1cccc(C(F)(F)F)n1 (stereo not drawn) [III-56] | < 0.1 | <25 |  |  |  |  |
| COc1cc2c(cc1NC(=O)c1cccc(C(F)(F)F)n1)CN(CCC(C)(C)C(=O)N1CCC3(CC1)CCN(c1cccc4c1C(=O)N(C1CCC(=O)NC1=O)C4=O)CC3)C2=O (stereo not drawn) [III-25] | 0.1 to 1 |  | 0.1 to 1 |  | 1000 to 10000 | 1000 to 10000 |
| CC(C)(O)c1cc2nn(CCN3CCN(CC(=O)N4CCC5(CC4)CCN(c4cccc6c4C(=O)N(C4CCC(=O)NC4=O)C6=O)CC5)C3=O)cc2cc1NC(=O)c1cccc(C(F)(F)F)n1 (stereo not drawn) [III-11] | 0.1 to 1 |  | 0.1 to 1 | 1000 to 10000 |  |  |
